From patent publication US12377076B2, “Compounds for treating lymphoma or a T-cell malignant disease” (Purdue Pharma L.P., priority 2018, dated 2025)
Where “and” joins values, the source holds several entries; their conditions need not be identical. Equal values may be shown once. Entries after “also recorded” stand apart in the source; their conditions may differ.

System: patients with relapsed/refractory hematologic malignancies
Experiment: Phase 1 dose escalation trial: safety, TEAEs, DLTs, MTD
Type: in vivo, human
Description: A phase 1 trial was carried out including a dose escalation study to investigate the safety, pharmacokinetic (PK) profiles and efficacy of tinostamustine (EDO-S101) in relapsed/refractory hematologic malignancies.
The patient had relapsed/refractory hematologic malignancies for which there are no available therapies.
The assessment of dose-limiting toxicities (DLTs) was based on cycle 1 events alone. Toxicities were assessed regarding type and severity using the National Cancer Institute (NCI) Common Terminology Criteria for Adverse Events (CTCAE) version 4.03, June 2010. Toxicity data were collected for all patients throughout their time on study. Infusion site reactions were assessed using the Phlebitis Scale developed by the Infusion Nurses Society (2011).
DLTs, which were at least possibly related to study drug, were defined as: • Any Grade 3 or 4 non-hematologic toxicity (excluding alopecia and easily correctable electrolyte abnormalities); • Nausea, vomiting or diarrhoea that persists beyond 10 days despite aggressive symptomatic treatment; • Grade 4 neutropenia or thrombocytopenia lasting for 7 days or more; • Any grade 2 or more toxicity, but persist for over 3 weeks; and • Any toxicity resulting in a delay of the next dose administration (cycle 2 day 1≥14).
To ensure patients' safety, the stopping rules were implemented to the dose escalation stage of the study.
Other safety assessments included physical examinations, Eastern Cooperative Oncology Group (ECOG) performance status determinations, electrocardiograms (ECGs), pregnancy testing for women of childbearing potential, documentation of treatment-emergent adverse events (TEAEs), clinical laboratory evaluations including haematology, blood chemistry and urinalysis, vital signs, and documentation of concomitant medication usage.
If there is no DLT observed in any of these subjects, the trial proceeds to enroll additional subjects into the next higher dose cohort. If one subject develops a DLT at a specific dose, an additional three subjects are enrolled into that same dose cohort.

[1] = all cohorts administered over 30 or 45 minutes
[2] = clinical chemistry TEAE, All Patients (N = 46)
[3] = clinical chemistry TEAE, all patients
[4] = doses of 20 to 80 mg/m^2, cohorts 20/60 to 120/60
[5] = doses of 100 or 120 mg/m^2, cohorts 20/60 to 120/60
[6] = patients with normal or grade 1 or 2 values at baseline

Cn1c(CCCCCCC(=O)NO)nc2cc(N(CCCl)CCCl)ccc21 [tinostamustine]
DLTs in cycle 1 (100 mg/m^2 over 60 minutes): no dose-limiting toxicities
patients with Grade 3 and 4 thrombocytopenia in C2 and C3 leading to withdrawal (100 mg/m^2 over 60 minutes): three
Grade 3 TEAE (Patients (N = 46)): 28 (60.8)
Grade 4 TEAE (Patients (N = 46)): 13 (28.2)
Infusion site phlebitis (Patients (N = 46)): 1 (2.1)
SAE (Patients (N = 46)): 8 (17.4)
TEAE leading to early study discontinuation (Patients (N = 46)): 11 (23.9)
TEAE with outcome of death (Patients (N = 46)): 0 (0)
TEAE (Patients (N = 46), number (percent)): 42 (91.3)
Treatment-related TEAE (Patients (N = 46), relationship possible, probable or definite): 38 (82.6)
incidence of leukopenia (administered over 30 or 45 minutes): 16%
incidence of leukopenia (administered over 60 minutes): 27%
incidence of thrombocytopenia (administered over 60 minutes): 58%
maximum tolerated dose (MTD) (administered over 60 minutes, subset of patients with MM (N=11)): 100 mg/m^2
SAE dyspnea (all 46 patients): 2%
SAE febrile neutropenia (all 46 patients): 2%
SAE hypersensitivity (all 46 patients): 2%
SAE osteomyelitis (all 46 patients): 2%
SAE pleural effusion (all 46 patients): 2%
SAE pneumonia (all 46 patients): 2%
SAE sepsis (all 46 patients): 2%
TEAE with an outcome of death (grade 5 TEAE) (all 46 patients): No patient
anaphylactic reaction leading to study drug discontinuation (all 46 patients): 2%
blood and lymphatic system disorders (all 46 patients): 54%
discontinuation for adverse events (AE) (all 46 patients): 29%
febrile neutropenia leading to study drug discontinuation (all 46 patients): 2%
gastrointestinal (GI) disorders (all 46 patients): 52%
general disorders and administration site conditions (all 46 patients): 50%
grade 3/4 anemia (all 46 patients): 22%
grade 3/4 leukopenia/WBC decreased (all 46 patients): 15% and 16%
grade 3/4 lymphopenia (all 46 patients): 8.6%
grade 3/4 neutropenia/neutrophil count decreased (all 46 patients): 29%
grade 3/4 thrombocytopenia (all 46 patients): 39% and 40%
hypersensitivity leading to study drug discontinuation (all 46 patients): 2%
incidence of all other TEAEs (all 46 patients): < 20%
incidence of nausea (all 46 patients): 29%
infusion-site phlebitis events (all 46 patients): 2%
neutropenia leading to study drug discontinuation (all 46 patients): 4%
patients who discontinued study drug because of a TEAE (all 46 patients): 23%
patients with a grade 3 or 4 TEAE (all 46 patients): 63%
patients with at least 1 grade 3 TEAE (all 46 patients): 60%
patients with at least 1 grade 4 TEAE (all 46 patients): 28%
patients with at least 1 serious adverse event (SAE) (all 46 patients): 18%
patients with at least one TEAE (all 46 patients): 91%
patients with at least one study drug-related TEAE (all 46 patients): 38 patients
pleural effusion leading to study drug discontinuation (all 46 patients): 2%
pruritus leading to study drug discontinuation (all 46 patients): 2%
thrombocytopenia leading to study drug discontinuation (all 46 patients): 15%
incidence of anaemia (all 46 patients, any grade): 39%
incidence of leukopenia/WBC decreased (all 46 patients, any grade): 21% and 22%
incidence of neutropenia/neutrophil count decreased (all 46 patients, any grade): 29% and 28%
incidence of thrombocytopenia/platelet count decreased (all 46 patients, any grade): 52%
SAE thrombocytopenia (all 46 patients, grade 3, HM120/60 cohort): 2%
incidence of anaemia [1]: 37%
incidence of thrombocytopenia [1]: 47%
thrombocytopenia leading to study drug and/or study discontinuation (all patients): 19%
Blood alkaline phosphatase increased [2]: 1 (2.1) n (%)
Blood magnesium decreased [2]: 1 (2.1) n (%)
Blood potassium decreased/hypokalaemia [2]: 5 (10.8) n (%)
C-reactive protein increased [2]: 2 (4.3) n (%)
Hyperglycaemia [2]: 1 (2.1) n (%)
Hyperuricemia [2]: 1 (2.1) n (%)
blood creatinine increased [2]: 4 (8.6) n (%)
C-reactive protein increased [3]: 4%
blood creatinine increased [3]: 9%
blood potassium decreased/hypokalemia [3]: 11%
grade 3 hyperuricemia (considered unrelated to study drug): 2%
DLTs that occurred (dose cohort of 120/60): Grade 4 thrombocytopenia lasting for 7 days or more; also recorded: Prolonged thrombocytopenia/toxicity resulting in the delay of the next dose administration
incidence of grade 3 or 4 anaemia (doses of 20 to 80 mg/m^2): 8%
incidence of anaemia [4]: 25%
incidence of grade 3/4 thrombocytopenia [4]: 8%
incidence of leukopenia [4]: 17%
incidence of neutropenia [4]: 25%
incidence of grade 3 or 4 anaemia (doses of 100 or 120 mg/m^2): 36%
incidence of anaemia [5]: 64%
incidence of grade 3/4 thrombocytopenia [5]: 71%
incidence of leukopenia [5]: 36%
incidence of neutropenia [5]: 50%
haematological nadir occurs (human, in vivo, intravenous): 17-23 day
patients who discontinued study drug and/or the study because of neutropenia (in vivo): Two
patients who discontinued study drug or the study because of leukopenia (in vivo): No patient
patients with treatment-emergent QTcF interval >500 msec (in vivo): One
treatment-emergent ECG abnormality indicated to be clinically significant (in vivo): No patient
MTD (lymphoma and multiple myeloma patients): 100 mg/m^2
MTD (lymphoma subpopulation): 100 mg/m^2
MAD (lymphoma subpopulation, administered over 1 hour): 120 mg/m^2
patients experiencing DLTs (lymphoma, 120 mg/m^2 over 1 hour): Two out of six
QTcF interval (one subject, MM 80/45 cohort, discontinuation visit three weeks after only dose, screening 423 msec): 677 ms
incidence of cardiac disorders (overall): 11%
study drug-related cardiac disorder, grade 1 palpitations (overall): 2%
tachycardia (overall): 4%
treatment-emergent grade 4 clinical chemistry abnormality, hyperuricemia [6]: 2%
treatment-emergent shift to grade 3 aspartate aminotransferase increased [6]: 2%
treatment-emergent shift to grade 3 hypoalbuminemia [6]: 2%
incidence of neutropenia (shorter infusion times): 16%
